Experimental data: a melting point compilation (Tetko et al.; mined from patent text by program, amines drawn as free bases though some values may be those of a salt)

Row | melting point | Compound
1 | 70 °C | CCOC(=O)C(C(=O)OCC)C(=O)c1cc(OC)c(OC)c([N+](=O)[O-])c1
2 | 44.5 to 45.5 °C | C=C(OCc1ccccc1)C(=O)OC
3 | 72 to 75 °C | COC(=O)c1cc2c(n(Cc3ccc(C#N)cc3)c1=O)CCCCCC2
4 | 114 to 116 °C | CCN(c1cc(Cl)ccc1C(=O)c1cnoc1C1CC1)S(C)(=O)=O
5 | 93 to 95 °C | CCOC(=O)c1cc(C(C)C)n(-c2ccc(Cl)cc2Cl)n1
6 | 200 to 202 °C | CCn1c2ccccc2n2c(=O)c(C(=O)N3CCOCC3)cnc12
7 | 94 to 98 °C | COC(=O)[C@H](CCSC)NC(=O)c1ccc(NC(Cn2ccnc2)c2ccc(F)cc2)cc1-c1ccc(F)cc1 (stereo partly drawn)
8 | 185 to 187 °C | O=C(CN1CCC(Cc2ccc(F)cc2)CC1)Nc1ccc2c(c1)NC(=O)CO2
9 | 215 °C | Cc1nc(N)nc(N)c1CCCc1cc(Cl)c(Cl)cc1Cl
10 | 85 °C | CCOc1cc(C2(C)CNC(=O)O2)ccc1OC (stereo not drawn)
11 | 107 to 109 °C | CCOC(=O)Oc1cc2occ(C(=O)O)c(=O)c2cc1OC(=O)OCC
12 | 228 to 230 °C | CCn1cc(C(=O)O)c(=O)c2cc(F)c(N3CCN(C)C(COC)C3)cc21 (stereo not drawn)
13 | 191 °C | CCc1noc(-c2ccc(C)cc2)c1-c1ccc(S(N)(=O)=O)cc1
14 | 134 to 136 °C | CCc1cc(C(=O)O)ccc1O
15 | 196 to 198 °C | COc1cc(OC)nc(C2(C#N)OC(=O)c3c(-c4ccccc4)ccnc32)n1 (stereo not drawn)
16 | 116 to 118 °C | CCC(CC)Nc1c([N+](=O)[O-])cc(CC(=O)O)c(C(C)C)c1[N+](=O)[O-]
17 | 117 to 118 °C | CO/C=C(/C(=O)OC)c1ccccc1Oc1cccc(O)c1
18 | 249 to 250 °C | Cc1nnc2n1N=C(c1ccc3c(c1)NC(=O)CO3)C(C)(C)S2
19 | 144 to 145 °C | COc1cccc(CC(=O)O)c1OCCCc1cn(-c2ccc(C#N)cn2)nc1C(C)C
20 | 79 to 80 °C | CCOC(=O)Cc1nc(-c2ccccc2)oc1-c1ccco1
21 | 122 to 124 °C | CCOC(=O)C1=C(CSC(=N)N)NC(C)=C(C(=O)OC)C1c1cccc([N+](=O)[O-])c1 (single isomer, unassigned; (+))
22 | 273 °C | Nc1nc2ccc(S(=O)(=O)n3c(CCCC(=O)O)cc4nc(Cl)ccc43)cc2o1
23 | 215 to 229 °C | COc1cc2ccc(C(=O)CCC(=O)O)cc2cc1OC
24 | 268 to 270 °C | CCn1cc(C(=O)Nc2ccccc2)c(=O)n2c3ccccc3nc12
25 | 100 °C | COc1ccc(S(=O)(=O)N(CCNC(=O)NCc2ccccc2)c2ccc(C)cc2Cc2c(F)cccc2F)cc1OC
26 | 237 to 238 °C | CC(=O)c1ccc2nc(NC(=O)c3ccc(C(C)(C)C)cc3)cn2n1
27 | 144 to 146 °C | O=C1CCOc2c1ccc1oc(Cl)cc21
28 | 177 to 178 °C | Cc1onc2c1NC(=O)COC2(C)c1ccccc1 (stereo not drawn)

Second part, the compound before the results:

Row | Compound | melting point
29 | COc1nc(SCC(N)c2ncco2)cnc1NS(=O)(=O)c1cccc(Cl)c1Cl (stereo not drawn) | 168 to 170 °C
30 | CNc1cccc(OCc2ccccc2)c1N | 79 to 81 °C
31 | O=C(Nc1ccn2cc(CO)nc2c1)c1cc2cc(C(F)(F)F)ccc2n1Cc1cccc(F)c1 | 254 to 255 °C
32 | CC(C)n1nc(-c2sc(NC(=O)NCc3ccccc3)nc2-c2ccccc2)ccc1=O | 200 to 201 °C
33 | COc1cn(-c2cccc(C(F)(F)F)c2)nc(-c2ccnn2-c2ccccc2)c1=O | 139 to 141 °C
34 | COc1nc(Cc2ccccc2[N+](=O)[O-])nc(OC)n1 | 91.6 to 92.3 °C
35 | S=C(NCCC1=CCCCC1)Nc1nccs1 | 147 to 148 °C
36 | O=C(NCc1ccccn1)c1cc2ccnc(Cl)c2[nH]1 | 177 to 183 °C
37 | CNC(=O)C(O)C1=CC2(CCCC2)c2ccccc21 (stereo not drawn) | 136 to 138 °C
38 | Cn1cc(-c2cccc(Cl)c2)c(=O)o1 | 131 °C
39 | Cc1c(Cl)cccc1N1CCN(CCc2nn(Cc3c[nH]cn3)c3cc4c(cc23)OCO4)CC1 | 176 to 177 °C
40 | CN1Cc2ccc(OCCCCN3CCN(c4cccc5ccccc45)CC3)nc2NC1=O | 180 to 182 °C
41 | OCCn1cc(-c2ccc3nnn(Cc4c(F)ccc(F)c4Cl)c3n2)cn1 | 143 to 145 °C
42 | CCCCCOc1ccc(C(=O)c2cccc3ccccc23)c2ccccc12 | 72 to 75 °C
43 | N#Cc1ncc(NCCO)nc1Br | 158 to 160 °C
44 | Cn1ccn(CO)c1=O | 102 to 104 °C
45 | N#Cc1ccc(Oc2ccccc2)cc1Oc1ccccc1 | 85 to 86 °C
46 | CC(C)(C)OC(=O)[C@@H]1N(S(=O)(=O)c2ccc(O)cc2)CCSC1(C)C | 171 °C
47 | CC(C)(C)NCC(O)c1cccc(C#N)c1F (stereo not drawn) | 88 to 90 °C
48 | CC(=O)OC1Cc2ccc([N+](=O)[O-])cc2C1 (stereo not drawn) | 84 to 85 °C
49 | C[C@@H](n1cnc2cc(-c3ccc(F)cc3)sc2c1=O)[C@](O)(Cn1cncn1)c1ccccc1F | 213 to 225 °C
50 | Cn1ncc2nn(-c3cccc(C(F)(F)F)c3)c(=O)c(Cl)c21 | 156 to 158 °C
51 | Clc1ccnc(Nc2ccccc2)n1 | 134 to 135 °C

Row | Compound | melting point
52 | N#CC(C(=O)c1ccc(Cl)cc1)=C1CCCN1Cc1ccc(Cl)nc1 | 142 to 144 °C
53 | Cc1ccc2c([N+](=O)[O-])c(Cl)ccc2n1 | 123 to 124 °C
54 | CSC(SC)=C(Cl)c1cccc(C(=O)c2ccccc2)c1 | 94 to 96 °C
55 | CC1=Nc2c3cc(-c4ccccc4)nc-3ccn2C1 | 222 °C
56 | O=C(CN1CCN(c2ccc(C(=O)O)cc2)CC1)Nc1ccc(Cl)cc1 | 263 to 265 °C
57 | COC1=Nc2ccc(Cl)cc2N(c2ccccc2)C(=O)C1 | 136 to 138 °C
58 | Clc1cnc2[nH]c3ccc(CCc4ccccc4)cc3c2c1 | 216 to 220 °C
59 | O=P1(NCCBr)OCCCN1CCBr (stereo not drawn) | 58 to 59 °C
60 | CS(=O)c1ncc2ccc(=O)[nH]c2n1 (stereo not drawn) | 237 to 242 °C
61 | CCCCCCCCOc1cnc(-c2ccc(OC(=O)[C@H]3CCCO3)cc2)nc1 | 90 °C
62 | COc1ccc2c(c1)C13CCN(C#N)C(C2)C1(OC)CCC(=O)C3 (stereo not drawn) | 172 to 176 °C
63 | COCc1ccc2cccnc2c1Cl | 78 to 79 °C
64 | CC(C)(C)OC(=O)NS(=O)(=O)c1ccc(Br)cc1 | 127 to 128 °C
65 | CC(=O)Nc1cccc(-c2nc3sccn3c2-c2ccnc(N[C@@H]3CCCN(S(=O)(=O)c4ccc(Cl)cc4)C3)n2)c1 | 169 to 174 °C
66 | Cc1c(-c2ccncc2)[nH]c(-c2ccncc2)c1C(=O)OC(C)C | 218 to 221 °C
67 | Clc1nc(-c2ccc3c(c2)CCO3)nc2ccccc12 | 186 to 192 °C
68 | Cc1ccc2c(c1)c(N1CCNCC1)c(C#N)c(=O)n2Cc1ccc(F)cc1 | 121 °C
69 | Cc1nn(-c2cc(Oc3ccc(O)cn3)c(Cl)cc2F)c(=O)n1C(F)F | 179 to 181 °C
70 | COc1nc(C)cnc1NS(=O)(=O)c1cccnc1-c1ccc(COC(C)C)cc1 | 123 to 124 °C
71 | Nc1nc(Nc2cccnc2)nn1-c1ccccn1 | 256 °C
72 | C[Si](C)(C)C#Cc1cnn2c(C(F)(F)F)cc(-c3ccc(Cl)cc3)nc12 | 198 °C
73 | O=C(CCN1CCN(c2cccc(C(F)(F)F)c2)CC1)c1ccc2c(c1)Cc1cc(C(=O)CCN3CCN(c4cccc(C(F)(F)F)c4)CC3)ccc1O2 | 155 to 157 °C
